Laboratory results as given in ChEMBL document CHEMBL1143059, “Structure-based design, synthesis and preliminary evaluation of selective inhibitors of dihydrofolate reductase from Mycobacterium tuberculosis” (Bioorg Med Chem, 2007).

Assays:
[1] = target: T1, Dihydrofolate reductase (Mycobacterium tuberculosis) (UniProt P9WNX1)
T1 sequence (whole entry): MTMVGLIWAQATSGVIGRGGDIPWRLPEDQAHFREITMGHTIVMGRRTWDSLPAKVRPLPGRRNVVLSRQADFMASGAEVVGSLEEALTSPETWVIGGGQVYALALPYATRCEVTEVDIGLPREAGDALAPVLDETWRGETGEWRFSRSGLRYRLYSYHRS
Description: Inhibition of Mycobacterium tuberculosis DHFR expressed in Saccharomyces cerevisiae TB5 assessed as yeast growth inhibition after 3 days by radial spoke assay

[2] = target: T2, Dihydrofolate reductase (Homo sapiens) (UniProt P00374)
T2 sequence (whole entry): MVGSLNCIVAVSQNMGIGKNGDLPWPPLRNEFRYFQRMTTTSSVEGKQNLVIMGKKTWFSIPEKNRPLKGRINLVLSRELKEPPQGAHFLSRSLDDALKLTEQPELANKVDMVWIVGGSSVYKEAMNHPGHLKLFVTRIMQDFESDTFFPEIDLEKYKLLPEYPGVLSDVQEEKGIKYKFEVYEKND
Description: Inhibition of human DHFR expressed in Saccharomyces cerevisiae TB5 assessed as yeast growth inhibition after 3 days by radial spoke assay

[3] = target: T3, Dihydrofolate reductase (Saccharomyces cerevisiae S288c) (UniProt P07807)
T3 sequence (whole entry): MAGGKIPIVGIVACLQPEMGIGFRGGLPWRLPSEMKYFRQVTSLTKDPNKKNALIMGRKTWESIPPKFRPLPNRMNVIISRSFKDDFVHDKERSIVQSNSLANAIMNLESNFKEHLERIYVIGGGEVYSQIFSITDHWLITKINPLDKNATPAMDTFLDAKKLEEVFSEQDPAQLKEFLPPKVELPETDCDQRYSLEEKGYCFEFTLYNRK
Description: Inhibition of yeast DHFR expressed in Saccharomyces cerevisiae TB5 assessed as yeast growth inhibition by after 3 days by radial spoke assay

Row | Structure (SMILES) | IZ [1] [mm] | IZ [2] [mm] | IZ [3] [mm]
1 | Nc1nc(N)c(-c2ccc(Br)cc2)c([C@H](O)[C@H](O)CO)n1 | 5 | 5 | 5
2 | CCc1nc(N)nc(N)c1-c1cccc(Cl)c1 | 5 | 6 | 5
3 | Nc1nc(N)c(-c2ccc(Cl)cc2)c([C@H](O)[C@H](O)CO)n1 | 5 | 5 | 5
4 | Nc1nc(N)c(-c2ccccc2)c(CC[C@H](O)[C@@H](O)CO)n1 | 9 | 8 | 8
5 | Nc1nc(N)c(-c2ccc(Cl)cc2)c(CC[C@@H](O)[C@@H](O)CO)n1 | 9 | 7 | 7
6 | Nc1nc(N)c(-c2ccc(Br)cc2)c(CCCCCO)n1 | 8 | 8 | 9
7 | Nc1nc(N)c(-c2ccc(Cl)cc2)c(CCCCCO)n1 | 8 | 8 | 8
8 | Nc1nc(N)c(-c2ccccc2)c([C@H](O)[C@H](O)CO)n1 | 5 | 5 | 5
9 | Nc1ncc(-c2ccccc2)c(CCc2ccccc2)n1 | 5 | 5 | 5
10 | Nc1nc(N)c(-c2ccc(Br)cc2)c(CC[C@@H](O)[C@@H](O)CO)n1 | 7 | 6 | 8
11 | Nc1nc(N)c(-c2ccc(Cl)c(Cl)c2)c(CCCCCO)n1 | 9 | 9 | 9
12 | Nc1nc(N)c(-c2ccccc2)c(CC[C@@H](O)[C@@H](O)CO)n1 | 11 | 6 | 6
13 | Nc1nc(N)c(-c2ccc(Cl)cc2)c(CC[C@H](O)[C@@H](O)CO)n1 | 7 | 7 | 6
14 | Nc1nc(N)c(-c2ccc(Cl)c(Cl)c2)c([C@H](O)[C@H](O)CO)n1 | 8 | 8 | 7
15 | Nc1nc(N)c(-c2ccc(Cl)c(Cl)c2)c(CC[C@@H](O)[C@@H](O)CO)n1 | 8 | 8 | 8
16 | Nc1nc(N)c(-c2ccc(Br)cc2)c(CC[C@H](O)[C@@H](O)CO)n1 | 8 | 5 | 6
17 | Nc1nc(N)c(-c2ccccc2)c(CCCCCO)n1 | 7 | 7 | 9
